Assay results reported in US11135290B2, “Fucosyllactose as breast milk identical non-digestible oligosaccharide with new functional benefit” (N.V. Nutricia, priority 2009, dated 2021).
Marks after values point to notes of the source that are not given here.

Legend:
Type in all cases: in vivo, C57BL/6 mice
[1] = tested on: regulatory T cells (Treg); assay: Percentage of regulatory T cells (Treg) by flow cytometry; details: dietary supplementation, vaccinated mice
Method: All groups were compared to the unsupplemented control diet. Dietary supplementation started 14 days before the first vaccination and lasted until the end of the experiment, 31 days after the first vaccination. […]
The percentage of regulatory T cells (Treg) was determined by flow cytometry (FACSCalibur) using allophycocyanin (APC-)labelled anti-mouse CD3 mAb, Pe-Cy5-labeled anti-mouse CD4 mAb and phycoerythrin (PE)-labelled anti-mouse CD25 mAb in combination with intracellular staining of fluorescein-isotiocyanate (FITC)-labelled Foxp3 mAb, according to the instructions offered by the manufactures (eBiosciences, San Diego, Calif.).

[2] = tested on: YAC-1 target cells; assay: NK cell cytotoxicity in spleen cell suspensions, 51Cr release assay; details: mouse splenocytes, dietary supplementation
Excerpt: (§1) 6-8 Weeks old female C57BL/6 mice (Charles River) received semi-purified AIN-93G-based diets (Research Diet Service, Wijk bij Duurstede, the Netherlands), comprising
1) 2 wt % beta-galacto-oligosaccharide (GOS; source Vivinal GOS, Borculo Domo), fructo-oligosaccharide (FOS; source RaftilineHP, Orafti) and galacturonic acid oligosaccharide (Source AOS) in a 9:1:1.1 ratio. AOS are produced from pectin (Stidzucker AG, Mannheim, Germany), with a DP of 1-20. It consists of approximately 75% galacturonic acid oligomers, based on total weight;
2) 1 wt % lactoneotetraose (LNnT),
3) 1 wt % 3′-sialyl lactose (3′-SL), or
4) 1 wt % 2′-fucosyllactose (2′-FL).
(§2) All groups were compared to the unsupplemented control diet. Dietary supplementation started 14 days before the first vaccination and lasted until the end of the experiment, 31 days after the first vaccination.
Vaccination experiments were performed using Influvac (Solvay Pharmaceuticals, Weesp, the Netherlands) from season 2005/2006. […] The percentage of specific ^51Cr release was calculated as the percentage of specific lysis=(experimental release−spontaneous release)/(total detergent release−spontaneous release)×100. […]
(§3) Statistical analysis was performed using GraphPadPrism software. Statistical differences between test and control groups were analysed by ANOVA and post hoc Dunnett's test if multiple groups were compared to a single (control) group. […]

[3] = tested on: DTH response; assay: DTH response after Influvac vaccination; details: dietary supplementation, vaccinated mice; TH1-dependent parameter
Method: as §1, §2
Vaccination experiments were performed using Influvac (Solvay Pharmaceuticals, Weesp, the Netherlands) from season 2005/2006. The mice received a primary vaccination and a booster vaccination, consisting of a subcutaneous (sc) injection of a 1:1 mix of vaccine and adjuvant in a total volume of 100 μl. The booster vaccination was given at 21 days after the primary vaccination. The experiments ended 10 days after booster vaccination. Blood samples were taken at the end of the experiment. […] The percentage of specific ^51Cr release was calculated as the percentage of specific lysis=(experimental release−spontaneous release)/(total detergent release−spontaneous release)×100. […]
as §3

Compound	Treg percentage (s.e.m.) [1]	NK cell activity, % lysis At E:T ratio 1:50 [2]	DTH response compared with control-fed animals [3]
CC(=O)N[C@H]1[C@H]([C@H](O)[C@H](O)CO)O[C@@](O[C@H]2[C@@H](O)[C@@H](CO)O[C@@H](O[C@H]3[C@H](O)[C@@H](O)C(O)O[C@@H]3CO)[C@@H]2O)(C(=O)O)C[C@@H]1O (stereo partly drawn) [3′-SL, 3′-sialyl lactose]	2.8 (0.2)* percentage	1.93 % lysis	significant increase
lactoneotetraose [LNnT]	3.2 (0.2) percentage	2.14 % lysis	significant increase
